Holding throughout (format): cell-based
In experiment [1] the test system is carbapenem-resistant Acinetobacter baumannii CR-AB 18-183,18-560. In words: MIC by microbroth dilution method, CR-AB strains. The conditions noted are these: 37° C., 20-22 hours. An excerpt:
(§1) The minimal inhibitory concentration (MIC) of the compounds as determined by microbroth dilution method with gentamicin, cefazolin sodium and ceftriaxone sodium as positive control.
(§2) The experimental strains included methicillin-resistant Gram-positive bacteria: methicillin-resistant Staphylococcus aureus MRSA 18-222, 18-575; multiple drug-resistant […] bacteria: vancomycin-resistant enterococci VRE 18-80,18-94, multidrug-resistant Pseudomonas aeruginosa MDR-PA 18-1774,18-202, carbapenem-resistant Acinetobacter baumannii CR-AB 18-183,18-560. All the experimental strains were donated by Huashan Hospital affiliated to Fudan University (Institute of antibiotics, Fudan University) and used after routine identification.
(§3) Preparation of MHB medium: 20.0 g MHB medium was added to 1 L distilled water, boiled until completely dissolved, packed in conical bottles and sterilized at 121° C. for 15 min.
(§4) The experimental strain was cultured to the logarithmic growth phase: under aseptic condition, the experimental strain was inoculated into 100 mL MHB medium and incubated in a constant temperature and humidity incubator at 37° C. for 20-22 hours.
(§5) Preparation of storage solution: weigh the sample to be tested, dissolve it with 1% DMSO solution, prepare a storage solution with a concentration of 2560 μg/mL, weigh a positive reference substance, dissolve it with aseptic distilled water, and configure a storage solution with a concentration of 2560 μg/mL.
(§6) Preparation of bacterial suspension: under aseptic condition, the experimental strains cultured to logarithmic growth phase were adjusted to 0.5 MCF turbidity standard with MHB medium and diluted according to 1:10, and the bacterial suspension with concentration of 10^6 CFU/mL was prepared for standby.
(§7) Dilution of storage solution and inoculation of experimental strain: under aseptic condition, the storage solution was diluted to 256 μg/mL solution. Take a sterile 96-well plate, add 200 μL MHB medium to the 12th well, and add 100 μL MHB medium to each well. Add 100 μL of positive control solution to the first well, mix well, and suck 100 μL from it and discard. Add 100 μL of the compound sample solution to the second well, mix well, and then pipette 100 μL to the third well. After mixing, pipette 100 μL to the fourth well, and dilute to the 11th well in this way. Finally, 100 μL was pipetted from the 11th well and discarded. The 12th hole was the growth control without drugs. So far, the concentration of the positive reference substance is 128 μg/mL, the concentrations of the sample solution are 128, […], 8, 4, 2, 1, 0.5, 0.25 μg/mL respectively. Then, 10μL of the prepared bacterial suspension is added to each well, so that the final concentration of the bacterial liquid in each well is 5×10^5 CFU/mL.
(§8) Incubation: Cover the 96-well plate inoculated with the experimental strains, and incubate in a constant temperature and humidity box at 37° C. for 20-22 hours.
For orientation: Broth dilution looks for growth in wells or tubes with falling amounts of substance.

The subject of experiment [2] is vancomycin-resistant enterococci VRE 18-80,18-94. In words: MIC by microbroth dilution method, VRE strains. The conditions noted are these: 37° C., 20-22 hours.
From the text: as §1, §2, §3, §4, §5, §6, §7, §8

The test system of experiment [3] is multidrug-resistant Pseudomonas aeruginosa MDR-PA 18-1774,18-202. In words: MIC by microbroth dilution method, MDR-PA strains. The conditions noted are these: 37° C., 20-22 hours.
From the text: as §1, §2, §3, §4, §5, §6, §7, §8

Experiment [4] relates to methicillin-resistant Staphylococcus aureus MRSA 18-222, 18-575. In words: MIC by microbroth dilution method, MRSA strains. The conditions noted are these: for Minimum bacteriostatic concentration: 37° C., 20-22 hours.
From the text: as §1, §2, §3, §4, §5, §6, §7, §8

The test system of another experiment is drug-resistant bacteria. In words: Antibacterial activity test, summary over all experimental strains. The conditions noted are these: summary of FIG. 1-6 and Table 1.
From the text: as §1, §2, §3
The experimental strain was cultured to the logarithmic growth phase: under aseptic condition, the experimental strain was inoculated into 100 mL MHB medium and incubated in a constant temperature and humidity incubator at 37° C. for 20-22 hours. […]

Converted amounts (≈) assume the structure as drawn. Some results are limits rather than exact numbers.

What is called MIC is the lowest concentration that inhibits growth of the organism. A high value points to weaker potency. For the compound `C/C=C/COC(=O)c1cc(O)c2c(c1)C(=O)c1cccc(O)c1C2=O` [Crotonyl alcohol cassic acid ester, (E)-but-2-en-1-yl 4,5-dihydroxy-9,10-dioxo-9,10-dihydroanthracene-2-carboxylate], the Minimum bacteriostatic concentration in experiment [1] (strain CR-AB 18-183), in experiment [1] (strain CR-AB 18-560), in experiment [2] (strain VRE 18-80), in experiment [2] (strain VRE 18-94), in experiment [3] (strain MDR-PA 18-174) and in experiment [3] (strain MDR-PA 18-202) was more than 128 µg/mL each time. Besides, the Minimum bacteriostatic concentration in experiment [4] (strain MRSA 18-222) and in experiment [4] (strain MRSA 18-575) was 4 µg/mL each time. The compound also gave an MIC in experiment [4] (Staphylococcus aureus, drug-resistant Gram-positive bacteria MRSA, strain not given) of 4 µg/mL (≈ 11.8 µM).

In the case of `CO/N=C(\C(=O)N[C@@H]1C(=O)N2C(C(=O)O)=C(CSc3nc(=O)c(=O)[nH]n3C)CS[C@H]12)c1csc(N)n1` [Ceftriaxone sodium, ceftriaxone sodium], the Minimum bacteriostatic concentration was more than 128 µg/mL in experiment [1] (strain CR-AB 18-183); more than 128 µg/mL in experiment [1] (strain CR-AB 18-560); 8 µg/mL in experiment [2] (strain VRE 18-80); more than 128 µg/mL in experiment [2] (strain VRE 18-94); 128 µg/mL in experiment [3] (strain MDR-PA 18-174); 16 µg/mL in experiment [3] (strain MDR-PA 18-202). Besides, the Minimum bacteriostatic concentration in experiment [4] (strain MRSA 18-222) and in experiment [4] (strain MRSA 18-575) was more than 128 µg/mL each time.

Regarding `CC=CCO` [Crotonyl alcohol, 2-butenol], the Minimum bacteriostatic concentration in experiment [1] (strain CR-AB 18-183), in experiment [1] (strain CR-AB 18-560), in experiment [2] (strain VRE 18-80), in experiment [2] (strain VRE 18-94), in experiment [3] (strain MDR-PA 18-174) and in experiment [3] (strain MDR-PA 18-202) was more than 128 µg/mL in each case. Also, the Minimum bacteriostatic concentration in experiment [4] (strain MRSA 18-222) and in experiment [4] (strain MRSA 18-575) was more than 128 µg/mL in each case. The “inhibitory effect on drug-resistant bacteria” value in the experiment with drug-resistant bacteria is “no inhibitory effect”.

`Cc1nnc(SCC2=C(C(=O)O)N3C(=O)[C@@H](NC(=O)Cn4cnnn4)[C@H]3SC2)s1` [Cefazolin sodium, cefazolin sodium]: the Minimum bacteriostatic concentration is more than 128 µg/mL in experiment [1] (strain CR-AB 18-183); more than 128 µg/mL in experiment [1] (strain CR-AB 18-560); 32 µg/mL in experiment [2] (strain VRE 18-80); more than 128 µg/mL in experiment [2] (strain VRE 18-94); 8 µg/mL in experiment [3] (strain MDR-PA 18-174); 128 µg/mL in experiment [3] (strain MDR-PA 18-202). Further, the Minimum bacteriostatic concentration in experiment [4] (strain MRSA 18-222) and in experiment [4] (strain MRSA 18-575) was more than 128 µg/mL in each case.

Consider gentamicin, for which the Minimum bacteriostatic concentration is more than 128 µg/mL in experiment [1] (strain CR-AB 18-183); more than 128 µg/mL in experiment [1] (strain CR-AB 18-560); 0.0625 µg/mL in experiment [2] (strain VRE 18-80); more than 128 µg/mL in experiment [2] (strain VRE 18-94); 0.0625 µg/mL in experiment [3] (strain MDR-PA 18-174); 0.0625 µg/mL in experiment [3] (strain MDR-PA 18-202). Besides, the Minimum bacteriostatic concentration in experiment [4] (strain MRSA 18-222) was 128 µg/mL; in experiment [4] (strain MRSA 18-575), 2 µg/mL.

As for `O=C(O)c1cc(O)c2c(c1)C(=O)c1cccc(O)c1C2=O` [Cassic acid], the Minimum bacteriostatic concentration in experiment [1] (strain CR-AB 18-183), in experiment [1] (strain CR-AB 18-560), in experiment [2] (strain VRE 18-80), in experiment [2] (strain VRE 18-94), in experiment [3] (strain MDR-PA 18-174) and in experiment [3] (strain MDR-PA 18-202) was more than 128 µg/mL throughout. Further, the Minimum bacteriostatic concentration in experiment [4] (strain MRSA 18-222) and in experiment [4] (strain MRSA 18-575) was more than 128 µg/mL in each case. Further, the “inhibitory effect on drug-resistant bacteria” value with drug-resistant bacteria is recorded as “no inhibitory effect”.
